One compound from patent US20040106135A1, “Assay for PPAR ligand dependent gene modulation” (priority 2002, published 2004) can be followed below.

Structures are written as SMILES.

One assay deals with HepG2 cells. Put plainly: Transcriptional profiling by DNA microarray, HepG2 cells. The assay is classed as cell-based, human. To be noted: endogenous levels of PPARα. An excerpt: Threshold cutoffs were set at fold change >1.4; p<0.01; and statistically significant in at least 2 experiments. The genes fatty acid CoA ligase 2 (FACL2), palmitoyl acyl-CoA oxidase 1 (ACOX1), and carnitine palmitoyl acyl-CoA transferase (CPT1A) are included for comparison based on published reports that they are PPARα responsive genes in HepG2 cells over expressing PPARα (Hsu et al., (2001) J. Biol. Chem. 276:27950-8; Lawrence et al., (2001) J. Biol. Chem. 276:31521-7).
Expression profiling: Expression profiling of RNA samples was performed essentially as described (Lockhart et al., (1996) Nat. Biotechnol. 14:1675-80) using the Affymetrix human U95Av2 array. Briefly, RNA was isolated from 100 mm cell culture dishes, DNased, and 15 μg used as a template for double stranded cDNA synthesis according to standard protocols (Invitrogen). […] The resultant cRNA products were purified using RNeasy columns (Qiagen), pooled, and quantitated spectrophotometrically. […]
Data Analysis: Affymetrix CEL files from GeneChip 4.0 (Affymetrix) were imported into Resolver 2.0 under an empirically derived Affymetrix error model (Rosetta Inpharmatics). […] Accordingly, the statistical significance (P-value) of a given expression data point takes into account the underlying error associated with the Affymetrix transcript abundance measurements as determined by this platform-specific error model. […]

In assay [1] the test system is hamster PDK-4 mRNA in kidney. Put plainly: PDK-4 mRNA induction in kidney of fat-fed hamsters. The assay is classed as in vivo. To be noted: single dose (GW9578 3 mg/kg, fenofibrate 100 mg/kg, gemfibrozil 500 mg/kg), 16 hours. The procedure:
FIG. 4B is a bar graphs depicting the induction of PDK-4 mRNA in hamster kidney by PPARα ligands. […] After 16 hours, the tissues were harvested, total RNA isolated and levels of hamster PDK-4 mRNA were detected by RT-PCR. The values are normalized to 18S rRNA levels. The mean and SEM of three individual animals are shown.
PDK-4 plays a critical role in regulating glucose metabolism by phosphorylating and inactivating the pyruvate dehydrogenase complex in response to increased fatty acid oxidation. […] To investigate the response of PDK-4 to fibrate treatment in vivo, in another aspect of the present invention the fat-fed hamster model was employed, which closely mimics the serum lipid profiles of humans than other rodent models (Sullivan et al., (1993) Lab. Anim. Sci. 43:575-578). […] These doses were previously shown to yield maximal effects on blood triglycerides in hamster. […] In hamster kidney, the basal levels of PDK-4 mRNA were approximately 10-fold higher than in the liver (FIG. 4B). […] Fibrates are effective treatments for lowering serum triglyceride levels. To verify that the doses used in this study were efficacious, blood triglyceride levels were monitored over a 48 hour time course.
Real-time PCR: Fluorescence-based real-time PCR was performed essentially as described (Abbaszade et al., (1999) J. Biol. Chem. 274:23443-23450). […] Taqman-based real-time PCR expression profiling was performed using 25 ng of each cDNA according to the manufacturer's (PE Biosystems) instructions with fluorescence being monitored in real-time with an ABI Prism 7700 (PE Biosystems). Relative expression levels were determined essentially as described (Gibson et al., (1996) Genome Res. 6:995-1001) using standard curves for each transcript. Relative abundance was then determined from these standard curves, subtracting mRNA levels obtained from negative control reactions performed in the absence of reverse transcriptase, and normalized to 18S rRNA levels. […]

`CCCCCCCN(CCc1ccc(SC(C)(C)C(=O)O)cc1)C(=O)Nc1ccc(F)cc1F` [GW9578, ureido-thioisobutyric acid]: the “Response of PPARα responsive genes (FACL2, CPT1, ACOX1) in HepG2 cells” value with HepG2 cells is reported as “No response”. The “Induction of PDK-4 mRNA in kidney” value in assay [1] amounted to 7 fold.
